The record followed here is EP1296672B2, “STABLE PHARMACEUTICAL PRODUCT AND FORMULATION” (LEK Pharmaceuticals d.d., priority 2000, dated 2001).

Data set [1] is described as follows: pH of unstabilized pravastatin Na crystals exposed to air atmosphere in different packagings. In kind it is physicochemical. As to conditions: for pH: exposed to air, pH measured in 5% aqueous solution. As to the method: Crystals of pravastatin Na were prepared as follows: […] The resulting clear yellow solution was cooled to 8°C and allowed to stand overnight. Formed radiating clusters of thin, long needle-like crystals were filtered, washed with ethyl acetate (20 ml) and dried. […]

A short description of data set [2]: pH of pravastatin Na crystals exposed to pure carbon dioxide in different packagings. In kind it is physicochemical. As to conditions: unstabilized pravastatin Na, carbon dioxide atmosphere, 5% aqueous solution. As to the method:
Therefore the samples, in case of experiments where the correspondingly stabilised pravastatin was used, were exposed to the atmosphere of pure carbon dioxide, so the changes in pH become evident in a relatively short period of time such as a day or two.
The crystals were formed by addition of 400 ml of ethyl acetate containing 2% of water.

How the values of data set [3] were obtained: In Fig. 1a, a HPLC chromatogram of a freshly perpared sample of pravastating Na is shown. The same pravastating Na was exposed to carbon dioxide atmosphere for one hour, and then a further HPLC chromatogram was prepared (Fig. 1b).

Regarding `CC[C@H](C)C(=O)O[C@H]1C[C@H](O)C=C2C=C[C@H](C)[C@H](CC[C@@H](O)C[C@@H](O)CC(=O)[O-])[C@H]21.[Na+]` [1a, pravastatin Na], the values for the pH in data set [1] (time 0 hours) and in data set [1] (time 24 hours) were 8.3 and 7.6, respectively.

Turning to `CC[C@H](C)C(=O)O[C@H]1C[C@H](O)C=C2C=C[C@H](C)[C@H](CC[C@@H](O)C[C@@H](O)CC(=O)[O-])[C@H]21.[Na+]` [1b, pravastatin Na], the figures for the pH in data set [1] (time 0 hours) and in data set [1] (time 24 hours) were 8.3 and 7.9, respectively.

For the molecule `CC[C@H](C)C(=O)O[C@H]1C[C@H](O)C=C2C=C[C@H](C)[C@H](CC[C@@H](O)C[C@@H](O)CC(=O)[O-])[C@H]21.[Na+]` [2a, pravastatin Na], the pH in data set [2] (time 0 h) is listed as 7.60; in data set [2] (time 1 h), 7.30; in data set [2] (time 5 h), 7.14; in data set [2] (time 70 h), 7.14.

As for `CC[C@H](C)C(=O)O[C@H]1C[C@H](O)C=C2C=C[C@H](C)[C@H](CC[C@@H](O)C[C@@H](O)CC(=O)[O-])[C@H]21.[Na+]` [pravastatin Na], the pH of crystals was 7.6 in data set [1] (after one day) and 8.3 in data set [1] (freshly prepared crystals). Besides, the “degradation products (HPLC peaks)” value in data set [3] is “two different peaks in front of and three peaks after the peak of pravastatin Na appear”.
